Data as given in ChEMBL document CHEMBL5523766 (J Med Chem, 2024).

Key:
ATR/ATRIP = ATR/ATRIP (Homo sapiens, UniProt Q13535); assay: Inhibition of ATR/ATRIP (unknown origin) using 5-FAM-AK-17 as substrate preincubated with compound for 10 mins followed by ATP addition and measured after 240 mins by mobility shift assay; type: protein-complex assay
Granta-519 [1] = assay: Induction of apoptosis in human Granta-519 cells assessed as viable cells at 2000 nM incubated for 48 hrs by Annexin-V-FITC/propidium iodide staining based flow cytometry (reference value: 92.7 %); type: functional; conditions: read-out: Activity
HCT-116 = assay: Antiproliferative activity against human HCT-116 cells assessed as inhibition of cell growth incubated for 72 hrs by MTS assay; type: functional, cell-based; conditions: HCT-116, 72 h
PC-3 = assay: Antiproliferative activity against human PC-3 cells assessed as inhibition of cell growth incubated for 72 hrs by MTS assay; type: functional, cell-based; conditions: PC-3, 72 h
DLD-1 = assay: Antiproliferative activity against human DLD-1 cells assessed as inhibition of cell growth incubated for 72 hrs by MTS assay; type: functional, cell-based; conditions: DLD-1, 72 h
Granta-519 [2] = assay: Induction of apoptosis in human Granta-519 cells assessed as necrotic cells at 2000 nM incubated for 48 hrs by Annexin-V-FITC/propidium iodide staining based flow cytometry (reference value: 0.429 %); type: functional
LoVo = assay: Antiproliferative activity against human LoVo cells assessed as inhibition of cell growth incubated for 72 hrs by MTS assay; type: functional, cell-based
Granta-519 [3] = assay: Induction of cell cycle arrest in human Granta-519 cells assessed as accumulation of cells at S phase at 2000 nM incubated for 24 hrs by propidium iodide staining based flow cytometry (reference value: 44.81 %); type: functional
Granta-519 [4] = assay: Induction of cell cycle arrest in human Granta-519 cells assessed as accumulation of cells at G1 phase at 2000 nM incubated for 24 hrs by propidium iodide staining based flow cytometry (reference value: 45.83 %); type: functional
Granta-519 [5] = assay: Induction of apoptosis in human Granta-519 cells assessed as late apoptotic cells at 2000 nM incubated for 48 hrs by Annexin-V-FITC/propidium iodide staining based flow cytometry (reference value: 3.07 %); type: functional
Granta-519 [6] = assay: Induction of apoptosis in human Granta-519 cells assessed as early apoptotic cells at 2000 nM incubated for 48 hrs by Annexin-V-FITC/propidium iodide staining based flow cytometry (reference value: 3.75 %); type: functional
Granta-519 [7] = assay: Antiproliferative activity against human Granta-519 cells assessed as inhibition of cell growth incubated for 72 hrs by MTS assay; type: functional, cell-based; conditions: Granta-519, 72 h
HT-29 = assay: Antiproliferative activity against human HT-29 cells assessed as inhibition of cell growth incubated for 72 hrs by MTS assay; type: functional, cell-based; conditions: HT-29, 72 h
OCI-Ly10 = assay: Antiproliferative activity against human OCI-Ly10 cells assessed as inhibition of cell growth incubated for 72 hrs by MTS assay; type: functional, cell-based; conditions: OCI-Ly10, 72 h
NCI-H446 = assay: Antiproliferative activity against human NCI-H446 cells assessed as inhibition of cell growth incubated for 72 hrs by MTS assay; type: functional, cell-based; conditions: NCI-H446, 72 h
A2780 = assay: Antiproliferative activity against human A2780 cells assessed as inhibition of cell growth incubated for 72 hrs by MTS assay; type: functional, cell-based; conditions: A2780, 72 h
CAPAN-1 = assay: Antiproliferative activity against human CAPAN-1 cells assessed as inhibition of cell growth incubated for 72 hrs by MTS assay; type: functional, cell-based; conditions: CAPAN-1, 72 h
SUD4 = assay: Antiproliferative activity against human SU-DHL-4 cells assessed as inhibition of cell growth incubated for 72 hrs by MTS assay; type: functional, cell-based; conditions: SU-DHL-4, 72 h

Sequence of ATR/ATRIP (Q13535 whole entry): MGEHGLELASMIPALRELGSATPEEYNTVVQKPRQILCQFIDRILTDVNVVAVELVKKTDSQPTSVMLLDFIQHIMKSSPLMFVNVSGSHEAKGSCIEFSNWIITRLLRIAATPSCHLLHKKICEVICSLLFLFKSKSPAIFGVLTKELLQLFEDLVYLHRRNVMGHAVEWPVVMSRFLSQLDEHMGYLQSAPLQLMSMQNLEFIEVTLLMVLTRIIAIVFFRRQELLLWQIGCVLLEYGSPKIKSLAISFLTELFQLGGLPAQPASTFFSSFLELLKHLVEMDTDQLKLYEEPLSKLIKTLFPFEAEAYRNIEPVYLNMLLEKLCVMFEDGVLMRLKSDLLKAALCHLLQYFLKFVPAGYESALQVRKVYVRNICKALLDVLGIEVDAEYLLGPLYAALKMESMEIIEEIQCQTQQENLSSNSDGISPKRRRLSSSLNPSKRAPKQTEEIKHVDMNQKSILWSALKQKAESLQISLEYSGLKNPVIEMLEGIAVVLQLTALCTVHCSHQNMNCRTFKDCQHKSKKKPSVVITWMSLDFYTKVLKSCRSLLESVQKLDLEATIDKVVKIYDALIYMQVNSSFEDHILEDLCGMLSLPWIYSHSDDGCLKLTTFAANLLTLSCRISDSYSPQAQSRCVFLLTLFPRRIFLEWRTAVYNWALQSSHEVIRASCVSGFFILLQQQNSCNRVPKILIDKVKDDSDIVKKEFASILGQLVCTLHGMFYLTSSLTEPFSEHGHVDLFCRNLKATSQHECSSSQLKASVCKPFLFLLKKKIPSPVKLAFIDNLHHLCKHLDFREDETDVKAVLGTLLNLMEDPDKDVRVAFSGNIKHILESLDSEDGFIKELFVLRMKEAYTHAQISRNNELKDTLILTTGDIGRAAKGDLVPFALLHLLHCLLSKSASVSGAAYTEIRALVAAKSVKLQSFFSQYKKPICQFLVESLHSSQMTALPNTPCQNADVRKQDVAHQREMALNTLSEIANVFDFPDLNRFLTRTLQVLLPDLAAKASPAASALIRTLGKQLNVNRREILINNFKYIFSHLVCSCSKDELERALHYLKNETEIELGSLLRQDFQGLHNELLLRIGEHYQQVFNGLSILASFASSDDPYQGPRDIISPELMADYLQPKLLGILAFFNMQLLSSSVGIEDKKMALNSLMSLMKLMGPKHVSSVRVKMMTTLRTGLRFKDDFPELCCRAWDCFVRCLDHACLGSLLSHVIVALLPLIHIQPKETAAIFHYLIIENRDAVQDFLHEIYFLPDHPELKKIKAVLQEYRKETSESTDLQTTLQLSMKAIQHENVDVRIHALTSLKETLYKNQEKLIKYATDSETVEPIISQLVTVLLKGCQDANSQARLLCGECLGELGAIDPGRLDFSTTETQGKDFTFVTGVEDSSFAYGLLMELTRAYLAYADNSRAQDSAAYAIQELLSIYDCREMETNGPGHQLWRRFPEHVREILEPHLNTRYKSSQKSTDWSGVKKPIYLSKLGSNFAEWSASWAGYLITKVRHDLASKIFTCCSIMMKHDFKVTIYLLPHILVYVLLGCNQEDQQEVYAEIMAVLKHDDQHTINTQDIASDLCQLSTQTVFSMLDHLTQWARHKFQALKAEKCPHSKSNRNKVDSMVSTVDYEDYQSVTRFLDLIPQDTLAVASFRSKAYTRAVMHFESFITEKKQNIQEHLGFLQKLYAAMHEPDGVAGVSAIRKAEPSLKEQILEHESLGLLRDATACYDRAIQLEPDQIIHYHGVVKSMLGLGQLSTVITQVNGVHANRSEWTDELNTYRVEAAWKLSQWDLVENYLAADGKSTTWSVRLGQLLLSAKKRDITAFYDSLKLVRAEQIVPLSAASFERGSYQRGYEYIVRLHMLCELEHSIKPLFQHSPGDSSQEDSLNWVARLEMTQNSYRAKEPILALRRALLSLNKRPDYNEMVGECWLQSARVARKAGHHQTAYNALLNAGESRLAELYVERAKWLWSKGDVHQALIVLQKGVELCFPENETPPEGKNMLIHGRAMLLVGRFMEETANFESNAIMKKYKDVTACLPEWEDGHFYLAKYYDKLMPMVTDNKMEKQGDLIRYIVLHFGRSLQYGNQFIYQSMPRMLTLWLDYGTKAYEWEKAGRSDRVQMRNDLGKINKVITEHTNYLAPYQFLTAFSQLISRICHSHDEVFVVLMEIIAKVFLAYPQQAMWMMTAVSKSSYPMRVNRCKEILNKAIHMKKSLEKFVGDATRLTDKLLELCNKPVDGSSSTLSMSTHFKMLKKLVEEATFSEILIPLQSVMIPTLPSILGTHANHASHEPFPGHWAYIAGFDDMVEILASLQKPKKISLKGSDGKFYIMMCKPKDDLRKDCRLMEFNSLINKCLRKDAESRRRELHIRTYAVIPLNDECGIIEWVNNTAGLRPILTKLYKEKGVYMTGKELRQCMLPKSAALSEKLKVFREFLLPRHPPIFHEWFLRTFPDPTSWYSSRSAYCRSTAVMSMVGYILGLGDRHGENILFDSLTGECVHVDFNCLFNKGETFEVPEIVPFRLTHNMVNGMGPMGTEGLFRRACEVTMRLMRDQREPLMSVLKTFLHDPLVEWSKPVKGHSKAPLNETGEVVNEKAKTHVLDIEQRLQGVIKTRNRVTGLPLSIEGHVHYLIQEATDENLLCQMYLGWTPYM
Sequence of ATR/ATRIP (Q8WXE1 whole entry, further chain): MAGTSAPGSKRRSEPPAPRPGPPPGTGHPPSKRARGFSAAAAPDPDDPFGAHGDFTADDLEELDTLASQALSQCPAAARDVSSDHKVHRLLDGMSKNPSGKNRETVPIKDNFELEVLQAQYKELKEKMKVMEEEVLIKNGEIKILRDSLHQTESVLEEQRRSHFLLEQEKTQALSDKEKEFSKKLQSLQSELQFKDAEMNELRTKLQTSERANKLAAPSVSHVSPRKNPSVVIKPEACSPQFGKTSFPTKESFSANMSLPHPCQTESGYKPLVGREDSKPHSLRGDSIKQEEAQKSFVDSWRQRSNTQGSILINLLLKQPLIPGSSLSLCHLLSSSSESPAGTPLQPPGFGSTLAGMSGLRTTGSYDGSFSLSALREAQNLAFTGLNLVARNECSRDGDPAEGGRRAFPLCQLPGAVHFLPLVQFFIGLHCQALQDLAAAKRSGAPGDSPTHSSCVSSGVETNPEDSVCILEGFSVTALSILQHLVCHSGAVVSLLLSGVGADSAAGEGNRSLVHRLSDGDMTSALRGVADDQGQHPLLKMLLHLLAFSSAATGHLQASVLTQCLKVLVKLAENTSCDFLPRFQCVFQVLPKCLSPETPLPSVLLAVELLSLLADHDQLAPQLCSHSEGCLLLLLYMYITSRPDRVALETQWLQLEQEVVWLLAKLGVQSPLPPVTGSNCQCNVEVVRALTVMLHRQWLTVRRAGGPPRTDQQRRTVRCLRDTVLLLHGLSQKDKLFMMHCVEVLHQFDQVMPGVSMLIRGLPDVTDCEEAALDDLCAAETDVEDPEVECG

| SMILES | IC50 (ATR/ATRIP) [nM] | other results |
| --- | --- | --- |
| CC(C)N(c1cc(N2CCOC[C@H]2C)nc(-c2cccc3[nH]ccc23)n1)S(C)(=O)=O | 7.8 | – |
| C[C@@H]1COCCN1c1nc(-c2cccc3sccc23)nc2c1ccn2S(C)(=O)=O | 28 | – |
| CCS(=O)(=O)n1ccc2c(N3CCOC[C@H]3C)nc(-c3cccc4[nH]ccc34)nc21 | 4.3 | – |
| C[C@@H]1COCCN1c1nc(-c2cccc3[nH]ccc23)nc2c1ccn2S(C)(=O)=O | 2.3 | – |
| C[C@@H]1COCCN1c1cc(C2CCCS2(=O)=O)nc(-c2cccc3[nH]ccc23)n1 (stereo partly drawn) | 9.4 | – |
| C[C@@H]1COCCN1c1cc(C2(S(C)(=O)=O)CC2)nc(-c2cccc3[nH]ccc23)n1 | – | viability at 2 µM (Granta-519 [1]): 80.6%; IC50 (HCT-116): 1470 nM; IC50 (PC-3): 8430 nM; IC50 (DLD-1): 3470 nM; Activity (Granta-519 [2]): 0.742%; IC50 (LoVo): 850 nM; Activity (Granta-519 [3]): 61.62%; Activity (Granta-519 [4]): 35.65%; Activity (Granta-519 [5]): 9.46%; Activity (Granta-519 [6]): 9.18%; IC50 (Granta-519 [7]): 500 nM; IC50 (HT-29): 2940 nM; IC50 (OCI-Ly10): 1030 nM; IC50 (NCI-H446): 3900 nM; IC50 (A2780): 460 nM; IC50 (CAPAN-1): 7050 nM; IC50 (SUD4): 2380 nM |
| C[C@@H]1COCCN1c1nc(-c2ccc3[nH]cnc3c2)nc2c1ccn2S(C)(=O)=O | 245 | – |
| C[C@@H]1COCCN1c1nc(-c2ccc3[nH]ccc3c2)nc2c1ccn2S(C)(=O)=O | 53.1 | – |
| C[C@@H]1COCCN1c1nc(-c2cccc3occc23)nc2c1ccn2S(C)(=O)=O | 684 | – |
| C[C@@H]1COCCN1c1nc(-c2cccc3[nH]ccc23)nc2c1ccn2S(=O)(=O)C1CC1 | 3.8 | – |
| C[C@@H]1COCCN1c1nc(-c2cc(C(F)(F)F)cc3[nH]ccc23)nc2c1ccn2S(C)(=O)=O | 9.2 | – |
| C[C@@H]1COCCN1c1nc(-c2cccc3[nH]ccc23)nc2c1CS(=O)(=O)C2 | 32.1 | – |
| C[C@@H]1COCCN1c1nc(-c2cnc3ccccc3c2)nc2c1ccn2S(C)(=O)=O | 630 | – |
| C[C@@H]1COCCN1c1cc(N(C2CC2)S(C)(=O)=O)nc(-c2cccc3[nH]ccc23)n1 | 3.3 | – |
| C[C@@H]1COCCN1c1nc(-c2cccc3[nH]ccc23)nc2c1cnn2S(C)(=O)=O | 5.8 | – |
| CC(C)S(=O)(=O)n1ccc2c(N3CCOC[C@H]3C)nc(-c3cccc4[nH]ccc34)nc21 | 8 | – |
| COc1cc(-c2nc(N3CCOC[C@H]3C)c3ccn(S(C)(=O)=O)c3n2)c2cc[nH]c2c1 | 5.3 | – |
| C[C@@H]1COCCN1c1nc(-c2ccnc3cccnc23)nc2c1ccn2S(C)(=O)=O | 3690 | – |
| C[C@@H]1COCCN1c1nc(-c2cccc3[nH]ccc23)nc2c1ccn2S(=O)(=O)c1ccccc1 | 270 | – |

Further compounds by falling IC50 (ATR/ATRIP), results first:

| IC50 (ATR/ATRIP) [nM] | SMILES | other results |
| --- | --- | --- |
| 10200 | C[C@@H]1COCCN1c1nc(-c2cccc3[nH]ccc23)nc2c1ccn2S(=O)(=O)c1ccc(-c2ccccc2)cc1 | – |
| 3670 | Cc1ccc(S(=O)(=O)n2ccc3c(N4CCOC[C@H]4C)nc(-c4cccc5[nH]ccc45)nc32)cc1 | – |
| 746 | C[C@@H]1COCCN1c1cc(C2(S(=O)(=O)N(C)C)CC2)nc(-c2cccc3[nH]ccc23)n1 | – |
| 625 | C[C@@H]1COCCN1c1nc(-c2ccc3nccn3c2)nc2c1ccn2S(C)(=O)=O | – |
| 205 | C[C@@H]1COCCN1c1nc(-c2cccc3[nH]ccc23)nc2c1ccn2S(=O)(=O)C1CCCCC1 | – |
| 84.9 | C[C@@H]1COCCN1c1nc(-c2cccc3[nH]ccc23)nc2c1ccn2S(=O)(=O)c1cccs1 | – |
| 46.9 | C[C@@H]1COCCN1c1nc(-c2cncc3ccccc23)nc2c1ccn2S(C)(=O)=O | – |
| 43.5 | C[C@@H]1COCCN1c1cc(N2CCCS2(=O)=O)nc(-c2cccc3[nH]ccc23)n1 | – |
| 39.5 | C[C@@H]1COCCN1c1nc(-c2cccc3ccccc23)nc2c1ccn2S(C)(=O)=O | – |
| 9.4 | C[C@@H]1COCCN1c1nc(-c2cc(C#N)cc3[nH]ccc23)nc2c1ccn2S(C)(=O)=O | – |
| 7.8 | C[C@@H]1COCCN1c1cc(C2CCCCS2(=O)=O)nc(-c2cccc3[nH]ccc23)n1 (stereo partly drawn) | – |
| 5.3 | C[C@@H]1COCCN1c1nc(-c2cccc3[nH]ccc23)nc2c1ccn2S(=O)(=O)N(C)C | – |
| 4.4 | C[C@@H]1COCCN1c1nc(-c2cc(Cl)cc3[nH]ccc23)nc2c1ccn2S(C)(=O)=O | – |
